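How tested: cells in 96-well plates exposed to compound for 48 hours at five concentrations. Abbreviation: GI50, concentration required for 50% inhibition of growth.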 Activity calls are given as the source filed them. Cut-off read from the data, not from the text of the source: active = GI50 up to about 1.1 µM and inactive = higher.
Key:
Test in all cases: DTP human tumour cell line panel, 48 h
[1] = tested on: 786-0
[2] = tested on: A549
[3] = tested on: ACHN
[4] = tested on: CAKI-1
[5] = tested on: CCRF-CEM
[6] = tested on: HCT-116
[7] = tested on: HL-60
[8] = tested on: IGROV-1
[9] = tested on: MDA-MB-231
[10] = tested on: Malme-3M
[11] = tested on: NCI-H23
[12] = tested on: NCI-H460
[13] = tested on: OVCAR-8
[14] = tested on: PC-3
[15] = tested on: RXF 393
[16] = tested on: SK-MEL-28
[17] = tested on: SN12C
[18] = tested on: SNB-19
[19] = tested on: U-251
[20] = tested on: SF-268

SMILES	GI50 [1]	GI50 [2]	GI50 [3]	GI50 [4]	GI50 [5]	GI50 [6]	GI50 [7]	GI50 [8]	GI50 [9]	GI50 [10]	GI50 [11]	GI50 [12]	GI50 [13]	GI50 [14]	GI50 [15]	GI50 [16]	GI50 [17]	GI50 [18]	GI50 [19]	GI50 [20]
C=C(CC[C@@H](C)[C@H]1CC[C@@]2(C)C3=C(CC[C@]12C)[C@@]1(C)CC[C@H](O)[C@@H](C)C1CC3)C(C)C (stereo partly specified)	0.984 µM (active)	1.2 µM (inactive)	1.38 µM (inactive)	1.15 µM (inactive)	0.414 µM (active)	1.31 µM (inactive)	0.361 µM (active)	2.35 µM (inactive)	1.5 µM (inactive)	1.29 µM (inactive)	1.28 µM (inactive)	0.679 µM (active)	1.61 µM (inactive)	1.07 µM (active)	1.37 µM (inactive)	1.28 µM (inactive)	1.44 µM (inactive)	2.17 µM (inactive)	1.39 µM (inactive)	–
COC(=O)[C@@H](Nc1ccccc1)[C@@]1(C(=O)OC)SC12c1ccccc1-c1ccccc12	29.4 µM (inactive)	44.8 µM (inactive)	> 100 µM (inactive)	> 100 µM (inactive)	39.4 µM (inactive)	12.8 µM (inactive)	> 100 µM (inactive)	> 100 µM (inactive)	> 100 µM (inactive)	49.7 µM (inactive)	> 100 µM (inactive)	–	63 µM (inactive)	35 µM (inactive)	71.3 µM (inactive)	> 100 µM (inactive)	44.6 µM (inactive)	> 100 µM (inactive)	44.1 µM (inactive)	> 100 µM (inactive)
CC1(C)Oc2ccc3c(=O)cc(-c4ccc(F)cc4)oc3c2C1C(=O)O (stereo unspecified)	> 100 µM (inactive)	> 100 µM (inactive)	–	23.3 µM (inactive)	> 100 µM (inactive)	> 100 µM (inactive)	–	> 100 µM (inactive)	> 100 µM (inactive)	> 100 µM (inactive)	> 100 µM (inactive)	–	> 100 µM (inactive)	> 100 µM (inactive)	> 100 µM (inactive)	–	> 100 µM (inactive)	–	> 100 µM (inactive)	> 100 µM (inactive)
c1ccc2c(CSCc3cccc4ccccc34)cccc2c1	> 100 µM (inactive)	> 100 µM (inactive)	> 100 µM (inactive)	> 100 µM (inactive)	3.5 µM (inactive)	57.5 µM (inactive)	–	38.5 µM (inactive)	> 100 µM (inactive)	58.9 µM (inactive)	> 100 µM (inactive)	43.4 µM (inactive)	> 100 µM (inactive)	43.4 µM (inactive)	> 100 µM (inactive)	> 100 µM (inactive)	> 100 µM (inactive)	> 100 µM (inactive)	85.1 µM (inactive)	> 100 µM (inactive)
CCN(CC)Cc1sc2nc3ccccc3n2c1-c1ccc(OC)cc1	35.2 µM (inactive)	31.8 µM (inactive)	45.1 µM (inactive)	38.8 µM (inactive)	17.1 µM (inactive)	26.6 µM (inactive)	20.9 µM (inactive)	25.5 µM (inactive)	60.4 µM (inactive)	17.2 µM (inactive)	26.9 µM (inactive)	–	36.9 µM (inactive)	17.4 µM (inactive)	26.2 µM (inactive)	22.7 µM (inactive)	–	27.1 µM (inactive)	29.2 µM (inactive)	24.3 µM (inactive)
C[Si](C)(OCCS(=O)(=O)O)C1S(=O)(=O)OCCOS1(=O)=O	36.1 µM (inactive)	–	35.9 µM (inactive)	27.7 µM (inactive)	58.1 µM (inactive)	67.1 µM (inactive)	27.5 µM (inactive)	> 100 µM (inactive)	> 100 µM (inactive)	> 100 µM (inactive)	53.8 µM (inactive)	31.7 µM (inactive)	86.3 µM (inactive)	93.5 µM (inactive)	21.7 µM (inactive)	> 100 µM (inactive)	> 100 µM (inactive)	36.8 µM (inactive)	21.8 µM (inactive)	24 µM (inactive)
COc1ccc(CCn2cnc3ccccc32)cc1	> 100 µM (inactive)	> 100 µM (inactive)	> 100 µM (inactive)	> 100 µM (inactive)	> 100 µM (inactive)	> 100 µM (inactive)	> 100 µM (inactive)	> 100 µM (inactive)	> 100 µM (inactive)	> 100 µM (inactive)	> 100 µM (inactive)	> 100 µM (inactive)	> 100 µM (inactive)	> 100 µM (inactive)	> 100 µM (inactive)	–	> 100 µM (inactive)	> 100 µM (inactive)	> 100 µM (inactive)	> 100 µM (inactive)
C/C(=C1\C(=O)C(c2ccccc2)N(c2ccccc2)C1=O)c1ccc(Cl)cc1 (stereo unspecified)	18.3 µM (inactive)	18.2 µM (inactive)	19.3 µM (inactive)	24.4 µM (inactive)	–	16.4 µM (inactive)	28.6 µM (inactive)	18.7 µM (inactive)	22.3 µM (inactive)	19.7 µM (inactive)	17.1 µM (inactive)	29.6 µM (inactive)	–	14.3 µM (inactive)	24 µM (inactive)	16.3 µM (inactive)	30.7 µM (inactive)	17.4 µM (inactive)	15.9 µM (inactive)	18.7 µM (inactive)
CN(NC(=O)c1ccc(Cl)cc1)C1=NCCCCN1	> 100 µM (inactive)	> 100 µM (inactive)	> 100 µM (inactive)	> 100 µM (inactive)	> 100 µM (inactive)	> 100 µM (inactive)	> 100 µM (inactive)	> 100 µM (inactive)	> 100 µM (inactive)	> 100 µM (inactive)	> 100 µM (inactive)	> 100 µM (inactive)	> 100 µM (inactive)	> 100 µM (inactive)	> 100 µM (inactive)	> 100 µM (inactive)	–	> 100 µM (inactive)	> 100 µM (inactive)	> 100 µM (inactive)
CN(Cc1cnc2nc(N)nc(N)c2n1)c1ccc(C(=O)NC(CCC(=O)O)C(=O)O)cc1 (stereo unspecified)	–	0.0384 µM (active)	0.0204 µM (active)	< 0.0157 µM (active)	–	< 0.01 µM (active)	< 0.01 µM (active)	0.082 µM (active)	> 100 µM (inactive)	7.29 µM (inactive)	0.0792 µM (active)	< 0.01 µM (active)	< 0.0448 µM (active)	3.81 µM (inactive)	> 100 µM (inactive)	1.25 µM (inactive)	< 0.011 µM (active)	0.619 µM (active)	0.0916 µM (active)	< 0.0298 µM (active)
CC[C@@]1(N(C)C)C(=O)OCc2c1cc1n(c2=O)Cc2cc3ccccc3nc2-1	25.8 µM (inactive)	61 µM (inactive)	20.3 µM (inactive)	> 10 µM (inactive)	18.5 µM (inactive)	33.1 µM (inactive)	–	–	96.6 µM (inactive)	20.2 µM (inactive)	16.6 µM (inactive)	12.5 µM (inactive)	16.9 µM (inactive)	58.3 µM (inactive)	13.7 µM (inactive)	> 100 µM (inactive)	–	29.4 µM (inactive)	29.2 µM (inactive)	17.3 µM (inactive)
CCCCCC(=O)OCC1(CO)C/C(=C\CC(C(C)C)C(C)C)C(=O)O1 (stereo unspecified)	31.9 µM (inactive)	76.9 µM (inactive)	> 100 µM (inactive)	83.6 µM (inactive)	26.4 µM (inactive)	45.7 µM (inactive)	–	65.8 µM (inactive)	> 100 µM (inactive)	15.3 µM (inactive)	> 100 µM (inactive)	42.3 µM (inactive)	38.1 µM (inactive)	> 100 µM (inactive)	> 100 µM (inactive)	59.3 µM (inactive)	31.6 µM (inactive)	> 100 µM (inactive)	25.1 µM (inactive)	> 100 µM (inactive)
CC1(C)OCC(C2OC3OC(C)(C)OC3C2c2ccccc2)O1 (stereo unspecified)	58.6 µM (inactive)	42.8 µM (inactive)	51.9 µM (inactive)	–	30.5 µM (inactive)	36.4 µM (inactive)	18.3 µM (inactive)	41.1 µM (inactive)	55 µM (inactive)	42.2 µM (inactive)	22.2 µM (inactive)	39.8 µM (inactive)	43 µM (inactive)	24.3 µM (inactive)	48.3 µM (inactive)	41.5 µM (inactive)	26.7 µM (inactive)	71.8 µM (inactive)	78 µM (inactive)	38.4 µM (inactive)
COC(=O)C1(C)OC(C)=NC1(C(=O)OC)C(=O)OC (stereo unspecified)	> 100 µM (inactive)	> 100 µM (inactive)	> 100 µM (inactive)	> 100 µM (inactive)	–	> 100 µM (inactive)	2.18 µM (inactive)	> 100 µM (inactive)	> 100 µM (inactive)	> 100 µM (inactive)	> 100 µM (inactive)	> 100 µM (inactive)	> 100 µM (inactive)	> 100 µM (inactive)	> 100 µM (inactive)	> 100 µM (inactive)	> 100 µM (inactive)	> 100 µM (inactive)	> 100 µM (inactive)	> 100 µM (inactive)
CC1(C)CCCOc2cccc(c2)OCCCC(C)(C)C1=O	41.5 µM (inactive)	31.7 µM (inactive)	36.8 µM (inactive)	46.2 µM (inactive)	16.5 µM (inactive)	26.6 µM (inactive)	18.1 µM (inactive)	39.2 µM (inactive)	44.1 µM (inactive)	27.6 µM (inactive)	31.8 µM (inactive)	25.1 µM (inactive)	–	14.8 µM (inactive)	17.7 µM (inactive)	38.5 µM (inactive)	45.3 µM (inactive)	80.7 µM (inactive)	35.2 µM (inactive)	54.8 µM (inactive)

Source: ChEMBL document CHEMBL1201862, “PubChem BioAssay data set” (2004)
